Assay results: patent US20250242064A1, “CXCR4-TARGETING COMPOUNDS, AND METHODS OF MAKING AND USING THE SAME” (PROVINCIAL HEALTH SERVICES AUTHORITY, priority 2022, published 2025)
Where a SMILES comes first, the peptide text is derived from it. Bridges are numbered along the chain shown (N, C = ends). [ ]: non-standard residue; d: D form. The star is where a group is joined. X3 = O=C(O)CN1CCN(CC(=O)O)CCN(CC(=O)N[C@@H](CS(=O)(=O)O)C(=O)N[C@@H](CCCCNC(=O)CCCc2ccc(Br)cc2)C(=O)*)CCN(CC(=O)O)CC1; 2Nal = N[C@@H](Cc1ccc2ccccc2c1)C(=O)O; Lys(iPr) = CC(C)NCCCC[C@H](N)C(=O)O

Test: in vivo
Set-up: species or system mice
Conditions: male, mouse, iv, total radioactivity
How it was run: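 Male NRG mice bearing subcutaneous Z138 mantle cell lymphoma xenografts (5×10^6 cells, grown to 200-300 mm^3) injected intravenously under isoflurane with 68Ga-labelled tracers. Harvested tissues weighed and gamma-counted; uptake expressed as % ID/g.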

[1] = NOD.Cg-Rag1tm1Mom Il2rgtm1Wjl/SzJ (NRG), Biodistribution: Adrenals
[2] = NOD.Cg-Rag1tm1Mom Il2rgtm1Wjl/SzJ (NRG), Biodistribution: Blood
[3] = NOD.Cg-Rag1tm1Mom Il2rgtm1Wjl/SzJ (NRG), Biodistribution: Bone
[4] = NOD.Cg-Rag1tm1Mom Il2rgtm1Wjl/SzJ (NRG), Biodistribution: Brain
[5] = NOD.Cg-Rag1tm1Mom Il2rgtm1Wjl/SzJ (NRG), Biodistribution: Heart
[6] = NOD.Cg-Rag1tm1Mom Il2rgtm1Wjl/SzJ (NRG), Biodistribution: Kidneys
[7] = NOD.Cg-Rag1tm1Mom Il2rgtm1Wjl/SzJ (NRG), Biodistribution: Liver
[8] = NOD.Cg-Rag1tm1Mom Il2rgtm1Wjl/SzJ (NRG), Biodistribution: Lungs
[9] = NOD.Cg-Rag1tm1Mom Il2rgtm1Wjl/SzJ (NRG), Biodistribution: Muscle
[10] = NOD.Cg-Rag1tm1Mom Il2rgtm1Wjl/SzJ (NRG), Biodistribution: Pancreas
[11] = NOD.Cg-Rag1tm1Mom Il2rgtm1Wjl/SzJ (NRG), Biodistribution: Small Intestine
[12] = NOD.Cg-Rag1tm1Mom Il2rgtm1Wjl/SzJ (NRG), Biodistribution: Spleen
[13] = NOD.Cg-Rag1tm1Mom Il2rgtm1Wjl/SzJ (NRG), Biodistribution: Stomach
[14] = NOD.Cg-Rag1tm1Mom Il2rgtm1Wjl/SzJ (NRG), Biodistribution: Testes
[15] = NOD.Cg-Rag1tm1Mom Il2rgtm1Wjl/SzJ (NRG), Biodistribution: Z138 Tumor
[16] = NOD.Cg-Rag1tm1Mom Il2rgtm1Wjl/SzJ (NRG), Ratio Tumor-to-Blood
[17] = NOD.Cg-Rag1tm1Mom Il2rgtm1Wjl/SzJ (NRG), Ratio Tumor-to-Bone
[18] = NOD.Cg-Rag1tm1Mom Il2rgtm1Wjl/SzJ (NRG), Ratio Tumor-to-Kidney
[19] = NOD.Cg-Rag1tm1Mom Il2rgtm1Wjl/SzJ (NRG), Ratio Tumor-to-Muscle
[20] = NOD.Cg-Rag1tm1Mom Il2rgtm1Wjl/SzJ (NRG), Ratio Tumor-to-Pancreas
[21] = NOD.Cg-Rag1tm1Momll2rgtm1Wjl/SzJ (NRG), Biodistribution: Blood
[22] = NOD.Cg-Rag1tm1Momll2rgtm1Wjl/SzJ (NRG), Biodistribution: Stomach
[23] = NOD.Cg-Rag1tm1Momll2rgtm1Wjl/SzJ (NRG), Biodistribution: Testes
[24] = NOD.Cg-Rag1tm1Momll2rgtm1Wjl/SzJ (NRG), Ratio Tumor-to-Bone
[25] = NOD.Cg-Rag1tm1Momll2rgtm1Wjl/SzJ (NRG), Ratio Tumor-to-Kidney
[26] = NOD.Cg-Rag1tm1Momll2rgtm1Wjl/SzJ (NRG), Ratio Tumor-to-Muscle
[27] = NOD.Cg-Rag1tm1Momll2rgtm1Wjl/SzJ (NRG), Ratio Tumor-to-Pancreas

`CC(C)NCCCC[C@H](NC(=O)[C@H]1CCC(=O)N[C@@H](CCCCNC(=O)[C@H](CCCCNC(=O)CCCc2ccc(Br)cc2)NC(=O)[C@H](CS(=O)(=O)O)NC(=O)CN2CCN(CC(=O)O)CCN(CC(=O)O)CCN(CC(=O)O)CC2)C(=O)N[C@@H](Cc2ccc(O)cc2)C(=O)N[C@@H](CCCCNC(C)C)C(=O)N[C@H](CCCNC(=N)N)C(=O)N[C@@H](Cc2ccc3ccccc3c2)C(=O)N[C@H](C)C(=O)N1)C(N)=O` [[^177Lu]Lu-BL34L20, metal not drawn] (K(X3)Y[Lys(iPr)][dR][2Nal][dA][dE][Lys(iPr)]-NH2; lactam N-7) gave a tissue uptake at 1 h [1] of 2.44 %ID/g, a tissue uptake at 3 h [1] of 2.29 %ID/g and a tissue uptake at 24 h [1] of 1.1 %ID/g. For the same compound, the tissue uptake at 72 h [1] was 0.81 %ID/g, the tissue uptake at 120 h [1] was 1.24 %ID/g and the tissue uptake at 1 h [2] was 14.1 %ID/g. It also gave a tissue uptake at 3 h [2] of 11.8 %ID/g, a tissue uptake at 1 h [3] of 1.02 %ID/g and a tissue uptake at 3 h [3] of 0.78 %ID/g. For the same compound, the tissue uptake at 24 h [3] was 0.29 %ID/g, the tissue uptake at 72 h [3] was 0.26 %ID/g and the tissue uptake at 120 h [3] was 0.3 %ID/g. The tissue uptake at 1 h [4] was 0.22 %ID/g, the tissue uptake at 3 h [4] was 0.2 %ID/g and the tissue uptake at 24 h [4] was 0.06 %ID/g. For the same compound, the tissue uptake at 72 h [4] was 0.03 %ID/g, the tissue uptake at 120 h [4] was 0.02 %ID/g and the tissue uptake at 1 h [5] was 3.05 %ID/g. For the same compound, the tissue uptake at 3 h [5] was 3.01 %ID/g, the tissue uptake at 24 h [5] was 0.76 %ID/g and the tissue uptake at 72 h [5] was 0.25 %ID/g. It also gave a tissue uptake at 120 h [5] of 0.18 %ID/g, a tissue uptake at 1 h [6] of 4.5 %ID/g and a tissue uptake at 3 h [6] of 3.98 %ID/g. The tissue uptake at 24 h [6] was 1.53 %ID/g, the tissue uptake at 72 h [6] was 0.4 %ID/g and the tissue uptake at 120 h [6] was 0.33 %ID/g. The tissue uptake at 1 h [7] was 2.8 %ID/g, the tissue uptake at 3 h [7] was 3.16 %ID/g and the tissue uptake at 24 h [7] was 0.84 %ID/g. The tissue uptake at 72 h [7] was 0.44 %ID/g, the tissue uptake at 120 h [7] was 0.19 %ID/g and the tissue uptake at 1 h [8] was 8.78 %ID/g. It also gave a tissue uptake at 3 h [8] of 6.6 %ID/g, a tissue uptake at 24 h [8] of 1.9 %ID/g and a tissue uptake at 72 h [8] of 0.68 %ID/g. The tissue uptake at 120 h [8] was 0.72 %ID/g, the tissue uptake at 1 h [9] was 1.13 %ID/g and the tissue uptake at 3 h [9] was 0.93 %ID/g. For the same compound, the tissue uptake at 24 h [9] was 0.27 %ID/g, the tissue uptake at 72 h [9] was 0.15 %ID/g and the tissue uptake at 120 h [9] was 0.08 %ID/g. For the same compound, the tissue uptake at 1 h [10] was 1.59 %ID/g, the tissue uptake at 3 h [10] was 1.25 %ID/g and the tissue uptake at 24 h [10] was 1.38 %ID/g. The tissue uptake at 72 h [10] was 0.12 %ID/g, the tissue uptake at 120 h [10] was 0.23 %ID/g and the tissue uptake at 1 h [11] was 1.16 %ID/g. For the same compound, the tissue uptake at 3 h [11] was 1.02 %ID/g, the tissue uptake at 24 h [11] was 0.53 %ID/g and the tissue uptake at 72 h [11] was 0.11 %ID/g. For the same compound, the tissue uptake at 120 h [11] was 0.08 %ID/g, the tissue uptake at 1 h [12] was 1.92 %ID/g and the tissue uptake at 3 h [12] was 1.86 %ID/g. It also gave a tissue uptake at 24 h [12] of 1.12 %ID/g, a tissue uptake at 72 h [12] of 0.95 %ID/g and a tissue uptake at 120 h [12] of 0.77 %ID/g. It also gave a tissue uptake at 1 h [13] of 0.52 %ID/g, a tissue uptake at 3 h [13] of 0.71 %ID/g and a tissue uptake at 1 h [14] of 1.78 %ID/g. The tissue uptake at 3 h [14] was 2.81 %ID/g, the tissue uptake at 1 h [15] was 5.94 %ID/g and the tissue uptake at 3 h [15] was 15.4 %ID/g. The tissue uptake at 24 h [15] was 27.4 %ID/g, the tissue uptake at 72 h [15] was 23.6 %ID/g and the tissue uptake at 120 h [15] was 23.6 %ID/g. For the same compound, the tissue to tissue ratio at 1 h [16] was 0.42, the tissue to tissue ratio at 3 h [16] was 1.3 and the tissue to tissue ratio at 24 h [16] was 9.65. It also gave a tissue to tissue ratio at 72 h [16] of 53.9, a tissue to tissue ratio at 120 h [16] of 71.5 and a tissue to tissue ratio at 1 h [17] of 3.63. For the same compound, the tissue to tissue ratio at 3 h [17] was 10.5, the tissue to tissue ratio at 1 h [18] was 1.32 and the tissue to tissue ratio at 3 h [18] was 3.93. The tissue to tissue ratio at 1 h [19] was 5.29, the tissue to tissue ratio at 3 h [19] was 16.7 and the tissue to tissue ratio at 72 h [19] was 234. It also gave a tissue to tissue ratio at 1 h [20] of 3.77, a tissue to tissue ratio at 3 h [20] of 12.6 and a tissue uptake at 24 h [21] of 2.84 %ID/g. For the same compound, the tissue uptake at 72 h [21] was 0.45 %ID/g, the tissue uptake at 120 h [21] was 0.36 %ID/g and the tissue uptake at 24 h [22] was 0.41 %ID/g. For the same compound, the tissue uptake at 72 h [22] was 0.13 %ID/g, the tissue uptake at 120 h [22] was 0.07 %ID/g and the tissue uptake at 24 h [23] was 1.01 %ID/g. For the same compound, the tissue uptake at 72 h [23] was 0.65 %ID/g, the tissue uptake at 120 h [23] was 0.56 %ID/g and the tissue to tissue ratio at 24 h [24] was 45.3. The tissue to tissue ratio at 72 h [24] was 44.3, the tissue to tissue ratio at 120 h [24] was 27 and the tissue to tissue ratio at 24 h [25] was 18. It also gave a tissue to tissue ratio at 72 h [25] of 60.3, a tissue to tissue ratio at 120 h [25] of 75.5 and a tissue to tissue ratio at 24 h [26] of 102. It also gave a tissue to tissue ratio at 120 h [26] of 357, a tissue to tissue ratio at 24 h [27] of 70.9 and a tissue to tissue ratio at 72 h [27] of 206. The tissue to tissue ratio at 120 h [27] was 257.
